Source: PMC5226997 (European Journal of Clinical Pharmacology, 2016)
Several values for one entry are separate records, joined by “and”; a condition that tells them apart may be missing. Identical values can stand only once. Like-named read-outs stand apart in the source and are kept apart here. Marks after values point to notes of the source that are not given here. Each block holds one compound with its values, some of them ahead of it.

Legend:
[1] = Frozen storage stability in plasma samples; details: plasma with K2EDTA; -20°C -80°C
Experimental: (§1) After addition of deuterated internal standard, samples were extracted by protein precipitation by the addition of 4 volumes of methanol:acetonitrile. After centrifugation, the supernatants were extracted to dryness under nitrogen at 50°C and reconstituted in methanol;water before analysis.

[2] = human, in vivo
Excerpt: (§2) The phase I, open-label, single-center, double-crossover-sequence, partially randomized (for assignment to treatment sequence), three-period itraconazole/fluconazole trial consisted of four visits to the study center (Fig. 1a). Subjects were screened during visit 1, which is 28 days prior to visit 2.
(§3) On day 1 of visit 2, subjects were randomized to one of two treatment sequences and admitted for residence at the study center up to day 12; standardized meals were provided during residency. […] Safety assessments were performed, and blood samples were collected for PK analysis up until day 12. Subjects were discharged on day 12 and completed a washout period of at least 21 days.
(§4) During visit 3, dosing period 3 comprised days 1–11 when subjects received the alternate treatment regimen (fluconazole 400 mg on day 1 followed by 200 mg once daily thereafter or itraconazole 200 mg twice daily) in a crossover fashion. […] Subjects were discharged on day 12. A follow-up visit, visit 4, was scheduled for 7–10 days after discharge from the study center.
(§5) Fluids were not allowed from 1 h pre- until 1 h post-dose, with the exception of 240 mL water to swallow the capsules. Fluconazole was dosed with a light breakfast; there were no restrictions regarding dosing with food in the SPC [8]. Itraconazole was dosed with a light breakfast and dinner as per SPC guidelines to ensure complete absorption [9].
(§6) Blood samples were collected prior to itraconazole or fluconazole administration on days 6 to 8 to determine trough itraconazole or fluconazole concentrations; rifampicin concentrations were measured at 2 h post-dose. In study B, the 4β-hydroxycholesterol to cholesterol concentration ratio was calculated as a biomarker of CYP3A4 induction. […] Samples were analyzed by Covance on behalf of AstraZeneca R&D, using an appropriate bioanalytical method [e.g., [11], [12]].
(§7) PK variables were summarized using descriptive statistics.
as §1

[3] = human, in vivo, 75 mg
Experimental: (§8) The rifampicin open-label, fixed-sequence, single-center trial consisted of three visits to the study center (Fig. 1b). Subjects were screened during visit 1, which is 28 days prior to visit 2. […] Safety assessments were performed, and blood samples were collected for PK analysis up until day 15. Subjects were discharged from the study center on day 15. The final visit, visit 3, was for follow-up and took place 7–10 days after discharge.
(§9) Subjects received daily dosing of rifampicin 600 mg for 8 days to maximize the induction effect on CYP3A4 [10]. […] Fluids were not allowed from 1 h pre- until 1 h post-dose, with the exception of water needed to swallow investigational products.
as §6, §7, §1

[4] = human
Experimental: as §1

[5] = Study B: safety and tolerability (adverse events); type: in vivo, human
Experimental: Adverse events (reported by system organ class and preferred term using the Medical Dictionary for Regulatory Activities (MedDRA) version 17.0), vital signs, 12-lead electrocardiograms (ECGs), and clinical laboratory tests were recorded to assess safety and tolerability in both trials. Adverse events were collected from day 1, period 1 of visit 2, until the follow-up visit in each trial. Serious adverse events were collected from the time of informed consent until follow-up. Each adverse event was assigned to the period of study treatment in which it started or worsened. Additional information regarding safety and tolerability is included as Online Resource 3.
The safety analysis set included any subject who received at least one dose of any of the investigational products, and in addition in the itraconazole/fluconazole trial, for whom post-dose data were available.

[6] = Study B: plasma pharmacokinetics of single-dose selumetinib 75 mg alone or co-dosed with rifampicin; details: human, in vivo
Experimental: as §8, §9, §6, §7, §1

[7] = parameters: method as in earlier work; details: relative bioavailability trial NCT01635023; cited from earlier work
[8] = Study A: plasma pharmacokinetics of single-dose selumetinib 25 mg alone or co-dosed with itraconazole or fluconazole; details: for AUC / Cmax / half-life: human, plasma, oral
Excerpt: as §2, §3, §4, §5, §6, §7, §1

clinical = details: human, in vivo, 75 mg
Experimental: as §8, §9, §6, §7, §1

[9] = Study A: safety and tolerability (adverse events); type: in vivo, human
[10] = co-dosed with fluconazole vs selumetinib alone
[11] = during single-agent (only) treatment

- established frozen storage stability period [1]: 9 months
- AUC(0–t), geometric least squares mean (GLSMR line) ([2]; 25 mg): 83.39 ng·h/mL
- C max, geometric least squares mean (GLSMR line) ([2]; 25 mg): 35.67 ng/mL
- MRAUC(0–t) (AUC(0–t) metabolite to parent ratio), arithmetic mean (SD) ([2]; 25 mg): 0.0760 (0.0227)
- MRCmax (C max metabolite to parent ratio), arithmetic mean (SD) ([2]; 25 mg): 0.0917 (0.0312)
- t 1/2 arithmetic mean (SD) ([2]; 25 mg): 4.66 (2.38) h
- t max median (min, max) ([2]; 25 mg): 1.00 (0.50, 2.50) h
- AUC(0–t), geometric least squares mean (GLSMR line) [3]: 347.3 ng·h/mL
- C max, geometric least squares mean (GLSMR line) [3]: 106.4 ng/mL
- MRAUC (AUC metabolite to parent ratio), arithmetic mean (SD) [3]: 0.0921 (0.0236)^a
- MRAUC(0–t) (AUC(0–t) metabolite to parent ratio), arithmetic mean (SD) [3]: 0.0921 (0.0236)
- MRCmax (C max metabolite to parent ratio), arithmetic mean (SD) [3]: 0.0760 (0.0187)
- t 1/2 arithmetic mean (SD) [3]: 9.47 (3.24) h
- t max median (min, max) [3]: 1.50 (1.00, 3.00) h
SMILES: O=C(NOCCO)c1cc2nc[nH]c2c(F)c1Nc1ccc(Br)cc1Cl [N-desmethyl selumetinib]

SMILES: Cn1cnc2c(F)c(Nc3ccc(Br)cc3Cl)c(C(=O)NOCCO)cc21 [Selumetinib]
- established frozen storage stability period [4]: 24 months
- relation of adverse events to selumetinib treatment ([5]; all adverse events mild): unrelated
- subjects reporting at least one adverse event ([5]; selumetinib co-dosed with rifampicin, one subject (erythema)): 4.5%
- subjects reporting at least one adverse event ([5]; selumetinib-only treatment, four subjects): 18.2%
- tolerability ([5]; single dose or co-administered with rifampicin): well tolerated
- AUC [6]: 4480 ng·h/mL
- within-subject coefficient of variation (CV) for AUC [7]: 16.9%
- within-subject coefficient of variation (CV) for C max [7]: 34.0%
- AUC increased by [8, 10]: 53% and ~ 50%
- C max increased by [8, 10]: 26%
- AUC ([8]; 25 mg, AUC (CV%), study A, selumetinib 25 mg alone, N = 26): 1180 ng·h/mL
- AUC ([8]; 25 mg, AUC, geometric least squares mean (GLSMR line), study A, selumetinib 25 mg alone, n = 26, linear mixed-effects model): 1180 ng·h/mL
- Cmax ([8]; 25 mg, C max (CV%), study A, selumetinib 25 mg alone, N = 26): 409 ng/mL
- Cmax ([8]; 25 mg, C max, geometric least squares mean (GLSMR line), study A, selumetinib 25 mg alone, n = 26, linear mixed-effects model): 409 ng/mL
- half-life ([8]; 25 mg, t 1/2 arithmetic mean (SD), study A, selumetinib 25 mg alone, N = 26): 494 min
- AUC ([8]; AUC (CV%), study A, selumetinib 25 mg + fluconazole, N = 22): 1770 ng·h/mL
- AUC ([8]; AUC (CV%), study A, selumetinib 25 mg + itraconazole, N = 24): 1760 ng·h/mL
- AUC ([8]; AUC, geometric least squares mean (GLSMR line), study A, selumetinib 25 mg + fluconazole, n = 22, linear mixed-effects model): 1820 ng·h/mL
- AUC ([8]; AUC, geometric least squares mean (GLSMR line), study A, selumetinib 25 mg + itraconazole, n = 24, linear mixed-effects model): 1770 ng·h/mL
- Cmax ([8]; C max (CV%), study A, selumetinib 25 mg + fluconazole, N = 22): 509 ng/mL
- Cmax ([8]; C max (CV%), study A, selumetinib 25 mg + itraconazole, N = 24): 484 ng/mL
- Cmax ([8]; C max, geometric least squares mean (GLSMR line), study A, selumetinib 25 mg + fluconazole, n = 22, linear mixed-effects model): 513 ng/mL
- Cmax ([8]; C max, geometric least squares mean (GLSMR line), study A, selumetinib 25 mg + itraconazole, n = 24, linear mixed-effects model): 484 ng/mL
- half-life ([8]; mean t 1/2 prolonged by, co-dosed with fluconazole vs selumetinib alone): ~90 min
- half-life ([8]; mean terminal half-life (t 1/2) prolonged by, co-dosed with itraconazole vs selumetinib alone): ~360 min
- half-life ([8]; t 1/2 arithmetic mean (SD), study A, selumetinib 25 mg + fluconazole, N = 22): 585 min
- half-life ([8]; t 1/2 arithmetic mean (SD), study A, selumetinib 25 mg + itraconazole, N = 24): 840 min
- CL/F arithmetic mean (SD) ([8]; study A, selumetinib 25 mg + fluconazole, N = 22): 14.8 (4.39) L/h
- CL/F arithmetic mean (SD) ([8]; study A, selumetinib 25 mg + itraconazole, N = 24): 14.9 (4.92) L/h
- CL/F arithmetic mean (SD) ([8]; study A, selumetinib 25 mg alone, N = 26): 21.9 (5.76) L/h
- Tmax (clinical): 1.27 h
- AUC (clinical; AUC, geometric least squares mean (GLSMR line)): 4480 ng·h/mL
- half-life (clinical; t 1/2 arithmetic mean (SD)): 556 min
- C max, geometric least squares mean (GLSMR line) [3]: 1441 ng/mL
- CL/F arithmetic mean (SD) [3]: 17.0 (3.33) L/h
- subjects reporting adverse events [9, 11]: 7.7%
- subjects with selumetinib-related adverse events (diffuse alopecia, headache; mild) ([9]; selumetinib and itraconazole co-dosing, n = 2): 8.3%
- subjects reporting adverse events ([9]; selumetinib co-dosed with fluconazole, 4/22): 18.2%
- subjects with selumetinib-related acne (mild) ([9]; selumetinib co-dosed with fluconazole, one subject): 4.5%
- subjects reporting headache ([9]; selumetinib co-dosed with itraconazole, n = 4/24): 16.7%
- subjects reporting adverse events ([9]; selumetinib co-dosed with itraconazole, n = 7/24): 29.2%
- subjects reporting a moderate adverse event (headache) ([9]; selumetinib co-dosed with itraconazole, one subject): 4.2%
- tolerability ([9]; single dose or co-administered with itraconazole or fluconazole): well tolerated

SMILES: CO[C@H]1/C=C/O[C@@]2(C)Oc3c(C)c(O)c4c(O)c(c(/C=N/N5CCN(C)CC5)c(O)c4c3C2=O)NC(=O)/C(C)=C\C=C\[C@H](C)[C@H](O)[C@@H](C)[C@@H](O)[C@@H](C)[C@H](OC(C)=O)[C@@H]1C [rifampicin, reference compound]
- subjects reporting adverse events ([5]; period of rifampicin administration (days 4–11)): all subjects
- subjects reporting chromaturia ([5]; period of rifampicin administration (days 4–11), resolved 2 to 3 days after treatment ceased): reported by all of these subjects

SMILES: CCC(C)n1ncn(-c2ccc(N3CCN(c4ccc(OCC5COC(Cn6cncn6)(c6ccc(Cl)cc6Cl)O5)cc4)CC3)cc2)c1=O (centres unmarked) [itraconazole, reference compound]
- subjects reporting adverse events [9, 11]: 20.8%

- trough plasma concentration (geometric mean) [2]: 5590 to 5730 ng/mL
SMILES: OC(Cn1cncn1)(Cn1cncn1)c1ccc(F)cc1F [fluconazole, reference compound]
- subjects reporting adverse events [9, 11]: 17.4%
